Laboratory results: patent US10519148B2, “Acrylic acid derivative, preparation method and use in medicine thereof” (Zhejiang Hisun Pharmaceutical Co., Ltd., priority 2015, dated 2019)

Columns and labels:
[1] = target: T1, recombinant human estrogen receptor ERα ligand binding domain (Homo sapiens, UniProt P03372); assay: LanthaScreen TR-FRET competition binding assay with estrogen receptor ERα ligand binding domain; conditions: TR-FRET competition with Fluormone ES2, ERα-LBD (GST); read-out: IC50 (nM) ER Reporter
T1 construct: purchased Invitrogen PV4543
T1 sequence (P03372 311-547 limits assumed): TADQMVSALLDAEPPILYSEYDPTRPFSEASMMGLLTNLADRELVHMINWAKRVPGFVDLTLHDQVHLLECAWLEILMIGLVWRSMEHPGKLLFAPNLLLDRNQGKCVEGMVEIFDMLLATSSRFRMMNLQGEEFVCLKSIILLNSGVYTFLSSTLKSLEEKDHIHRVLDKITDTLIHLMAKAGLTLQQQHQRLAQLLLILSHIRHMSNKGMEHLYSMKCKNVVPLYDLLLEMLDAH
Source text: The present invention utilizes the Lantha Screen™ Time-resolved Fluorescence Resonance Energy Transfer (TR-FRET) to assess the ability of the compounds to bind to the isolated ligand domain of estrogen receptor Era in competition assay. The fluorophore (Fluormone ES2, product code P2645) and the recombinant human estrogen receptor ERα ligand binding domain (product code PV4543) using in the TR-FRET were purchased from Invitrogen. The design principle of this assay is as follows: the estrogen receptor ERα-LBD (GST) and the fluorophore-containing ligand form a receptor/fluorophore complex, followed by the addition of terbium (Tb)-labeled anti-GST antibody (product code PV3551), the indirect labeling of the receptor is achieved by the linkage with the GST on the receptor, and the ability of competitive coordination between the test compound and the fluorescent ligand with the receptor is evaluated by detecting the attenuation of the TR-FRET effect between the chromophore (Tb-anti-GST antibody) on the fluorescent label ERα and the fluorescent ligand (Fluormone ES2). We used the following sample preparation and test methods for the test of the synthesized compounds. The instrument we used is Beckman Coulter BioPAPTR FRD microfluidic workstation.
(1) Acoustic dispense 120 nL of the test compound into a black low volume 384 well assay plates;
(2) Preparation of 1×ERα-LBD/Tb-anti-GST antibody complex in ES2 buffer and incubation therein for 20 minutes;
(3) The 1×ES2 was further added to the above ERα-LBD/Tb-anti-GST antibody complex solution before the test;
(4) 12 μL of the ERα-LBD/Tb-anti-GST antibody complex solution prepared in step 3 was added to the wells of the assay plate;
(5) The plates were shielded from light and incubated at room temperature for one hour; (6) At 337 nm excitation light, the emission light at 490 nm and 520 nm was detected by BMG Phera STAR.
The test compounds of a series of concentrations (10 mM, 0.1 mM, 1 μM and 10 nM) prepared on a microplate were transferred to the analytical plate using Labcyte Echo 550. 120 nL of DMSO solution for each test compound was added to each well of the assay plate and tested at 12 different concentrations (100, 29.17, 10.42, 2.083, 1, 0.292, 0.104, 0.02083, 0.01, 0.0029, 0.00104, 0.001 μM). The TR-FRET primitive fluorescence data was used to obtain the fitting curve software such as Origin or Genedata. Half maximal inhibitory concentration IC50 of each compound was used to characterize the competitive binding ability of the test compound with the estrogen receptor ERα. IC50 represents the concentration of the test compound that was calculated when the coordination of the tracer fluorophore (ES2) with the estrogen receptor was reduced by 50%, and the IC50 was determined as shown in Table 3.

[2] = system: MCF-7 carcinoma xenografts; assay: Tumor growth inhibition in SCID mice bearing MCF-7 carcinoma xenografts; assay type: in vivo; conditions: for TGI (%) Day 4: Day 4, MCF-7 tumor bearing SCID mice; for TGI (%) Day 7: Day 7, MCF-7 tumor bearing SCID mice; for TGI (%) Day 11: Day 11, MCF-7 tumor bearing SCID mice; for TGI (%) Day 14: Day 14, MCF-7 tumor bearing SCID mice; for TGI (%) Day 18: Day 18, MCF-7 tumor bearing SCID mice; for TGI (%) Day 21: Day 21, MCF-7 tumor bearing SCID mice; for effect on tumor growth inhibition in human breast cancer MCF-7 bearing mice (in words): doses of 30 mg/kg and 50 mg/kg, within 21 days
Description: 1. Purpose of the Experiment
This test was used to evaluate the inhibitory effect of the test compounds, which were orally administered daily for 21 days, on the growth of transplanted tumor in MCF-7 tumor-bearing SCID mice.
2. Preparation of the Test Substance
Solvent: 20% PEG400, 80% deionized water;
Preparation of the test compounds: an appropriate amount of the test compounds were weighed, dissolved in PEG400 (20%), and then 80% amount of the sterilized deionized water was added, shocked evenly. The test compounds were freshly prepared daily before administration.
Varieties and strains: SCID mice, SPF, female, 7 to 9 weeks old (16 to 22 grams), 100 mice, purchased from Beijing Huafu kang Biotechnology Co., Ltd., 100 mice with good health were used for the experiment, with the environment adaption time of 5 to 7 days.
4. MCF-7 Tumor Cell Culture
MCF-7 cells were cultured in RPMI1640 medium containing 10% fetal bovine serum, cultured in 37° C., 5% CO2 incubator. Cells in logarithmic phase were taken before inoculating, digested with 0.25% trypsin, and then the cells were washed with PBS, resuspended in medium without serum and counted. The cell concentration was adjusted to 7.5×10^7 cells/mL (1:1 Matrigel, Extracellular Matrix Proteins, 356234, BD).
5. Animal Inoculation and Grouping
Each mouse was inoculated subcutaneously in the right axilla with 0.2 mL cell suspension (1.5×10^7 cells/mouse) under aseptic conditions. Estrogen was administrated subcutaneously after inoculation. When the tumor grows to volume of about 150-250 mm^3, the mice with similar tumor volume and good tumor shape were selected (shape to be a single spherical as much as possible, no irregular shape or multiple tumors together), 10 mice per group.
6. Animal Administration and Observation
The formation of tumor in the inoculated part of each group of animals was observed. The long diameter (Y) and the short diameter (X) of the tumor nodules were measured with a vernier caliper twice a week and calculated according to the following formula: The volume of tumor nodules (V): V=(X^2Y)/2.
Evaluation index of antitumor activity: tumor growth inhibition rate TGI (%), relative tumor proliferation rate T/C (%). • Tumor growth inhibition rate TGI (%): TGI (%)=(Vc−Vt)/Vc×100. Where Vc is the tumor volume of the model control group and Vt is the tumor volume of the compound group.
Relative tumor volume (RTV): RTV=Vn/V0. Where V0 is the tumor volume just before the first time administered, and Vn is the tumor volume at the time of measurement.
Relative tumor proliferation rate: T/C (%): T/C (%)=TRTV/CRTV×100. Where, TRTV was RTV of the treatment group and CRTV was RTV of negative control group.

C[C@@H]1Cc2c([nH]c3ccccc23)[C@@H](c2c(F)cc(/C=C/C(=O)O)cc2F)N1CC1(F)CC1 [Example 1, (E)-3-(3,5-difluoro-4-((1R,3R)-2-((1-fluorocyclopropyl)methyl)-3-methyl-2,3,4,9-tetrahydro-1H-pyrido[3,4-b]indol-1-yl)phenyl)acrylic acid]
IC50 [1]: 0.1 to 10 nM | TGI (%) Day 4 ([2]; 30 mg/kg po qd): 12.3% | TGI (%) Day 7 ([2]; 30 mg/kg po qd): 24.4% | TGI (%) Day 11 ([2]; 30 mg/kg po qd): 34.5% | TGI (%) Day 14 ([2]; 30 mg/kg po qd): 52.7% | TGI (%) Day 18 ([2]; 30 mg/kg po qd): 65.7% | TGI (%) Day 21 ([2]; 30 mg/kg po qd): 76.7% | TGI (%) Day 4 ([2]; 50 mg/kg po qd): 16.9% | TGI (%) Day 7 ([2]; 50 mg/kg po qd): 26.5% | TGI (%) Day 11 ([2]; 50 mg/kg po qd): 38.8% | TGI (%) Day 14 ([2]; 50 mg/kg po qd): 54.2% | TGI (%) Day 18 ([2]; 50 mg/kg po qd): 66.9% | TGI (%) Day 21 ([2]; 50 mg/kg po qd): 78.8% | effect on tumor growth inhibition in human breast cancer MCF-7 bearing mice (in words) [2]: significant effect on tumor growth inhibition

C[C@@H]1Cc2c([nH]c3cccc(F)c23)[C@@H](c2c(F)cc(/C=C/C(=O)O)cc2F)N1CC1(F)CC1 [Example 12, (E)-3-(3,5-difluoro-4-((1R,3R)-5-fluoro-2-((1-fluorocyclopropyl)methyl)-3-methyl-2,3,4,9-tetrahydro-1H-pyrido[3,4-b]indol-1-yl)phenyl)acrylic acid]
IC50 [1]: 0.1 to 10 nM | TGI (%) Day 4 ([2]; 30 mg/kg po qd): 12.1% | TGI (%) Day 7 ([2]; 30 mg/kg po qd): 25.9% | TGI (%) Day 11 ([2]; 30 mg/kg po qd): 41.5% | TGI (%) Day 14 ([2]; 30 mg/kg po qd): 53.6% | TGI (%) Day 18 ([2]; 30 mg/kg po qd): 62.0% | TGI (%) Day 21 ([2]; 30 mg/kg po qd): 73.4% | TGI (%) Day 4 ([2]; 50 mg/kg po qd): 12.4% | TGI (%) Day 7 ([2]; 50 mg/kg po qd): 25.4% | TGI (%) Day 11 ([2]; 50 mg/kg po qd): 43.8% | TGI (%) Day 14 ([2]; 50 mg/kg po qd): 59.6% | TGI (%) Day 18 ([2]; 50 mg/kg po qd): 69.8% | TGI (%) Day 21 ([2]; 50 mg/kg po qd): 79.4% | effect on tumor growth inhibition in human breast cancer MCF-7 bearing mice (in words) [2]: significant effect on tumor growth inhibition
